In US20250144067A1, “PERSONALIZED STARVATION THERAPY FOR CANCER” (Faeth Therapeutics, Inc., priority 2021, published 2025):
Where a name gives a salt, the structure may show the parent alone.

Experiments:
[1] = tested on: NCI-H292 lung cancer cells; test: FDA drug screening, complete media vs cholesterol-free media without statin (TABLE 1); format: cell-based, human
[2] = tested on: NCI-H292 lung cancer cells; test: FDA drug screening, complete media vs cholesterol-free media with simvastatin (TABLE 2); format: cell-based, human; conditions: for Cholesterol-free media + simvastatin (0.04 μM) / Complete Media: NCI-H292 cells
[3] = NCI-H292 cells, cholesterol-free media without statin, FDA drug library screen
[4] = NCI-H292 cells, complete media, FDA drug library screen
[5] = complete vs cholesterol-free media, >0 enhanced anti-cancer activity, about 0 neutral, <0 antagonist
[6] = FDA library drug in cholesterol-free media with simvastatin 0.04 μM
[7] = FDA library drug in complete media
[8] = complete media vs cholesterol-free media + simvastatin (0.04 μM), >0 enhanced anti-cancer activity, about 0 neutral, <0 antagonist
[9] = Complete minus Cholesterol-free, […]
[10] = cholesterol-free media with simvastatin 0.04 μM, FDA drug library screen (TABLE 2)
[11] = complete media, FDA drug library screen (TABLE 2)
[12] = complete media minus cholesterol-free media + simvastatin (0.04 μM), […]
[13] = Complete minus Cholesterol-free, greater than 0 enhanced anti-cancer activity, about 0 neutral, below 0 antagonists
[14] = NCI-H292 cells in cholesterol-free media without statin
[15] = NCI-H292 cells in complete media
[16] = FDA drug library screen, cholesterol-free media with simvastatin 0.04 μM
[17] = FDA drug library screen, complete media
[18] = NCI-H292 cells, cholesterol-free media without statin
[19] = complete vs cholesterol-free media, greater than 0 enhanced anti-cancer activity, about 0 neutral, below 0 antagonists
[20] = Complete minus Cholesterol-free, >0 enhanced anti-cancer activity, about 0 neutral, <0 antagonist
[21] = drug in cholesterol-free media with simvastatin 0.04 μM
[22] = Complete minus Cholesterol-free, greater than 0 enhanced anti-cancer activity, about 0 neutral, below 0 antagonist
[23] = NCI-H292 cells, FDA drug library screen, cholesterol-free media without statin
[24] = NCI-H292 cells, FDA drug library screen, complete media
[25] = complete media minus cholesterol-free media + simvastatin, >0 enhanced anti-cancer activity, about 0 neutral, <0 antagonist
[26] = complete media minus cholesterol-free media + simvastatin (0.04 μM), >0 enhanced anti-cancer activity, about 0 neutral, <0 antagonist
[27] = cholesterol-free media with simvastatin 0.04 μM, cell growth value in FDA drug screen
[28] = complete media, cell growth value in FDA drug screen

COc1cc(C2Oc3cc([C@H]4Oc5cc(O)cc(O)c5C(=O)[C@@H]4O)ccc3OC2CO)ccc1O (some centres unmarked) [Silibinin]
Cholesterol-free [1, 3]: 0.9386
Complete [1, 4]: 1.219
Difference [1, 5]: 0.28
Cholesterol-free media + simvastatin (0.04 μM) [2, 6]: 2.112
Complete Media [2, 7]: 1.696
Difference [2, 8]: −0.42

CC(=O)NCCCS(=O)(=O)O [Acamprosate (calcium)]
Difference [1, 9]: 0.03
Cholesterol-free [1, 3]: 1.751
Complete [1, 4]: 1.779
Cholesterol-free media + simvastatin (0.04 μM) [2, 10]: 1.34
Complete Media [2, 11]: 1.328
Difference [2, 12]: −0.01

Oc1ccc(OCc2ccccc2)cc1 [Monobenzone]
Difference [1, 13]: −0.87
Cholesterol-free [1, 14]: 1.95
Complete [1, 15]: 1.077
Cholesterol-free media + simvastatin (0.04 μM) [2, 16]: 1.226
Complete Media [2, 17]: 1.137
Difference [2, 8]: −0.09

CCOc1nc2cccc(C(=O)O)c2n1Cc1ccc(-c2ccccc2-c2nc(=O)o[nH]2)cc1 [Azilsartan]
Cholesterol-free [1, 18]: 1.417
Complete ([1]; NCI-H292 cells, complete media): 1.021
Difference [1, 19]: −0.40
Cholesterol-free media + simvastatin (0.04 μM) [2, 16]: 1.196
Complete Media [2, 17]: 1.042
Difference [2, 8]: −0.15

Cc1[nH]cnc1CN1CCc2c(c3ccccc3n2C)C1=O [Alosetron (Hydrochloride)]
Difference [1, 20]: 0.05
Cholesterol-free [1, 3]: 1.398
Complete [1, 4]: 1.45
Cholesterol-free media + simvastatin (0.04 μM) [2, 16]: 0.9241
Complete Media [2, 17]: 0.826
Difference [2, 8]: −0.10

CO/N=C1\C[C@]2(C[C@@H]3C[C@@H](C/C=C(\C)C[C@@H](C)/C=C/C=C4\CO[C@@H]5[C@H](O)C(C)=C[C@@H](C(=O)O3)[C@]45O)O2)O[C@H](/C(C)=C/C(C)C)[C@H]1C [Moxidectin]
Difference [1, 20]: −0.21
Cholesterol-free [1, 18]: 0.4893
Complete ([1]; NCI-H292 cells, complete media): 0.2816
Cholesterol-free media + simvastatin (0.04 μM) [2, 21]: 0.8625
Complete Media ([2]; drug in complete media): 0.6882
Difference [2, 8]: −0.17

N=C(N)NC(=O)c1nc(Cl)c(N)nc1N [Amiloride hydrochloride dihydrate]
Cholesterol-free [1, 3]: 0.9043
Complete [1, 4]: 1.06
Difference [1, 5]: 0.16
Cholesterol-free media + simvastatin (0.04 μM) [2, 21]: 1.232
Complete Media ([2]; drug in complete media): 1.07
Difference [2, 8]: −0.16

COC(c1ccccc1)(c1ccccc1)[C@H](Oc1nc(C)cc(C)n1)C(=O)O [Ambrisentan]
Difference [1, 22]: −0.16
Cholesterol-free [1, 23]: 1.13
Complete [1, 24]: 0.9703
Cholesterol-free media + simvastatin (0.04 μM) [2, 16]: 1.296
Complete Media [2, 17]: 1.497
Difference [2, 25]: 0.20

OCC(O)CO [Glycerol]
Cholesterol-free [1, 3]: 0.984
Complete [1, 4]: 1.096
Difference [1, 5]: 0.11
Cholesterol-free media + simvastatin (0.04 μM) [2, 10]: 1.066
Complete Media [2, 11]: 1.039
Difference [2, 26]: −0.03

Nc1ncnc2c1ncn2CCOCP(=O)(O)O [Adefovir]
Cholesterol-free [1, 3]: 0.8102
Complete [1, 4]: 1.199
Difference ([1]; complete vs cholesterol-free media, […]): 0.39
Cholesterol-free media + simvastatin (0.04 μM) [2, 10]: 0.9937
Complete Media [2, 11]: 0.9462
Difference [2, 12]: −0.05

Cc1ccc(-c2ncc(Cl)cc2-c2ccc(S(C)(=O)=O)cc2)cn1 [Etoricoxib]
Cholesterol-free [1, 3]: 1.045
Complete [1, 4]: 1.321
Difference [1, 5]: 0.28
Cholesterol-free media + simvastatin (0.04 μM) [2, 10]: 1.501
Complete Media [2, 11]: 1.49
Difference [2, 26]: −0.01

Nc1ccn([C@@H]2CS[C@H](CO)O2)c(=O)n1 [Lamivudine]
Difference [1, 20]: −0.22
Cholesterol-free [1, 18]: 1.216
Complete ([1]; NCI-H292 cells, complete media): 0.9947
Cholesterol-free media + simvastatin (0.04 μM) [2, 6]: 1.644
Difference [2, 8]: −0.47

Salbutamol (hemisulfate)
Difference [1, 22]: −0.13
Cholesterol-free [1, 23]: 1.595
Complete [1, 24]: 1.464
Cholesterol-free media + simvastatin (0.04 μM) [2, 6]: 2.036
Complete Media [2, 7]: 1.453
Difference [2, 8]: −0.58

CCOC(=O)c1ccc(C#Cc2ccc3c(c2)C(C)(C)CCS3)nc1 [Tazarotene]
Difference [1, 22]: −0.11
Cholesterol-free [1, 23]: 0.7313
Complete [1, 24]: 0.6177
Cholesterol-free media + simvastatin (0.04 μM) [2, 10]: 0.9107
Complete Media [2, 11]: 0.8646
Difference [2, 26]: −0.05

COc1ccccc1OCCNCC(O)COc1cccc2[nH]c3ccccc3c12 (centres unmarked) [Carvedilol]
Difference [1, 22]: −0.18
Cholesterol-free [1, 23]: 1.133
Complete [1, 24]: 0.9579
Cholesterol-free media + simvastatin (0.04 μM) [2, 6]: 1.448
Complete Media [2, 7]: 0.9665
Difference [2, 8]: −0.48

CCCC(=O)O[C@]1(C(=O)COC(=O)CC)CC[C@H]2[C@@H]3CCC4=CC(=O)CC[C@]4(C)[C@H]3[C@@H](O)C[C@@]21C [Hydrocortisone buteprate]
Difference [1, 22]: −0.17
Cholesterol-free [1, 23]: 0.8122
Complete [1, 24]: 0.6382
Cholesterol-free media + simvastatin (0.04 μM) [2, 27]: 0.6107
Complete Media [2, 28]: 0.6538
Difference [2, 25]: 0.04

COc1ccc2c(c1O)-c1c(OC)c(OC)cc3c1[C@H](C2)N(C)CC3 [Isocorydine]
Difference [1, 9]: −0.17
Cholesterol-free [1, 23]: 1.162
Complete [1, 24]: 0.9961
Cholesterol-free media + simvastatin (0.04 μM) [2, 10]: 1.273
Complete Media [2, 11]: 1.214
Difference [2, 12]: −0.06

CCC(=O)NS(=O)(=O)c1ccc(-c2c(-c3ccccc3)noc2C)cc1 [Parecoxib]
Difference [1, 20]: −0.20
Cholesterol-free [1, 18]: 0.9171
Complete ([1]; NCI-H292 cells, complete media): 0.7131
Cholesterol-free media + simvastatin (0.04 μM) [2, 21]: 0.9747
Complete Media ([2]; drug in complete media): 0.7244
Difference [2, 8]: −0.25

OCCN(CCO)c1nc(N2CCCCC2)c2nc(N(CCO)CCO)nc(N3CCCCC3)c2n1 [Dipyridamole]
Difference [1, 13]: −0.51
Cholesterol-free [1, 14]: 1.48
Complete [1, 15]: 0.9729
Cholesterol-free media + simvastatin (0.04 μM) [2, 27]: 0.9652
Complete Media [2, 28]: 1.095
Difference [2, 25]: 0.13

C[N+]1(C)[C@@H]2CC[C@H]1C[C@@H](OC(=O)C(O)c1ccccc1)C2.[Br-] (some centres unmarked) [Homatropine (methylbromide)]
Difference [1, 9]: −0.22
Cholesterol-free [1, 18]: 1.269
Complete ([1]; NCI-H292 cells, complete media): 1.05
Cholesterol-free media + simvastatin (0.04 μM) [2, 6]: 1.302
Complete Media [2, 7]: 0.9164
Difference ([2]; complete media vs cholesterol-free media + simvastatin (0.04 μM), […]): −0.39

CN1CC[C@@H](NC(=O)Nc2ccc(C#N)cc2)C[C@@H]1c1nc2ccccc2[nH]1 [Glasdegib]
Cholesterol-free [1, 18]: 1.398
Complete ([1]; NCI-H292 cells, complete media): 0.9821
Difference [1, 19]: −0.42
Cholesterol-free media + simvastatin (0.04 μM) [2, 16]: 0.7992
Complete Media [2, 17]: 0.9809
Difference [2, 25]: 0.18

C[C@]12CC[C@@H]3c4ccc(O)cc4CC[C@H]3[C@@H]1C[C@@H](O)[C@@H]2O [Estriol]
Cholesterol-free [1, 18]: 1.14
Complete ([1]; NCI-H292 cells, complete media): 0.7448
Difference [1, 19]: −0.40
Cholesterol-free media + simvastatin (0.04 μM) [2, 16]: 0.9551
Complete Media [2, 17]: 0.851
Difference [2, 8]: −0.10

COc1cc(Nc2ncc(F)c(Nc3ccc4c(n3)N(COP(=O)(O)O)C(=O)C(C)(C)O4)n2)cc(OC)c1OC [Fostamatinib Disodium]
Difference [1, 20]: −0.20
Cholesterol-free [1, 18]: 1.102
Complete ([1]; NCI-H292 cells, complete media): 0.9004
Cholesterol-free media + simvastatin (0.04 μM) [2, 16]: 0.7811
Complete Media [2, 17]: 0.6698
Difference [2, 8]: −0.11
